Source: the NIST ThermoML archive (doi:10.1021/je034223r)

How the values were obtained:
[1] = excess molar enthalpy (molar enthalpy of mixing); xn = mol fraction of the nth substance listed; details: 298.15 K, 101.3 kPa, Liquid, Flow calorimetry
[2] = heat capacity at constant pressure per volume; xn = mol fraction of the nth substance listed; details: 298.15 K, 101.3 kPa, Liquid, Flow calorimetry
[3] = refractive index (Na D-line) (dimensionless); xn = mol fraction of the nth substance listed; details: 298.15 K, 101.3 kPa, Liquid, refractometer
[4] = xn = mol fraction of the nth substance listed; details: 298.15 K, 101.3 kPa, Liquid, vibrating tube

CCCCCC(C)=O [2-heptanone] + C1COCO1
Details	excess molar enthalpy [kJ/mol]	heat capacity [J/K/m3]	mass density [kg/m3]	refractive index
[1], x2 = 0.1	0.117	–	–	–
[1], x2 = 0.15	0.171	–	–	–
[1], x2 = 0.2	0.225	–	–	–
[1], x2 = 0.25	0.275	–	–	–
[1], x2 = 0.3	0.32	–	–	–
[1], x2 = 0.35	0.359	–	–	–
[1], x2 = 0.4	0.391	–	–	–
[1], x2 = 0.45	0.416	–	–	–
[1], x2 = 0.5	0.4315	–	–	–
[1], x2 = 0.55	0.439	–	–	–
[1], x2 = 0.6	0.435	–	–	–
[1], x2 = 0.65	0.426	–	–	–
[1], x2 = 0.7	0.407	–	–	–
[1], x2 = 0.75	0.374	–	–	–
[1], x2 = 0.8	0.332	–	–	–
[1], x2 = 0.85	0.276	–	–	–
[1], x2 = 0.9	0.203	–	–	–
[2], x2 = 0.0872	–	1721500	–	–
[2], x2 = 0.1656	–	1720700	–	–
[2], x2 = 0.2372	–	1720000	–	–
[2], x2 = 0.3167	–	1719700	–	–
[2], x2 = 0.3868	–	1719900	–	–
[2], x2 = 0.4649	–	1720200	–	–
[2], x2 = 0.541	–	1721000	–	–
[2], x2 = 0.6252	–	1722500	–	–
[2], x2 = 0.6995	–	1724400	–	–
[2], x2 = 0.7807	–	1726700	–	–
[2], x2 = 0.8584	–	1729700	–	–
[3], x2 = 0.0796	–	–	–	1.4064
[3], x2 = 0.1592	–	–	–	1.40592
[3], x2 = 0.2381	–	–	–	1.40542
[3], x2 = 0.315	–	–	–	1.40489
[3], x2 = 0.3582	–	–	–	1.40459
[3], x2 = 0.3981	–	–	–	1.4043
[3], x2 = 0.437	–	–	–	1.404
[3], x2 = 0.4767	–	–	–	1.4037
[3], x2 = 0.5147	–	–	–	1.4034
[3], x2 = 0.5562	–	–	–	1.40305
[3], x2 = 0.5892	–	–	–	1.40276
[3], x2 = 0.6363	–	–	–	1.40234
[3], x2 = 0.6694	–	–	–	1.40202
[3], x2 = 0.7034	–	–	–	1.40169
[3], x2 = 0.7886	–	–	–	1.40078
[3], x2 = 0.8717	–	–	–	1.39979
[3], x2 = 0.9502	–	–	–	1.39873
[4], x2 = 0.1058	–	–	824.42	–
[4], x2 = 0.1274	–	–	827.37	–
[4], x2 = 0.244	–	–	844.52	–
[4], x2 = 0.3122	–	–	855.72	–
[4], x2 = 0.3693	–	–	865.84	–
[4], x2 = 0.3985	–	–	871.31	–
[4], x2 = 0.4258	–	–	876.6	–
[4], x2 = 0.4304	–	–	877.56	–
[4], x2 = 0.4313	–	–	877.69	–
[4], x2 = 0.4768	–	–	887.06	–
[4], x2 = 0.5071	–	–	893.63	–
[4], x2 = 0.5125	–	–	894.83	–
[4], x2 = 0.5141	–	–	895.15	–
[4], x2 = 0.536	–	–	900.1	–
[4], x2 = 0.5433	–	–	901.8	–
[4], x2 = 0.5928	–	–	913.69	–
[4], x2 = 0.6302	–	–	923.33	–
[4], x2 = 0.6308	–	–	923.51	–
[4], x2 = 0.667	–	–	933.32	–
[4], x2 = 0.7125	–	–	946.48	–
[4], x2 = 0.785	–	–	969.65	–
[4], x2 = 0.8627	–	–	997.8	–
[4], x2 = 0.9533	–	–	1036.16	–

CCCC(C)=O [pentan-2-one] + C1COCO1
Details	excess molar enthalpy [kJ/mol]	heat capacity [J/K/m3]	mass density [kg/m3]	refractive index
[1], x2 = 0.1	0.0534	–	–	–
[1], x2 = 0.15	0.082	–	–	–
[1], x2 = 0.2	0.111	–	–	–
[1], x2 = 0.25	0.138	–	–	–
[1], x2 = 0.3	0.157	–	–	–
[1], x2 = 0.35	0.178	–	–	–
[1], x2 = 0.4	0.193	–	–	–
[1], x2 = 0.45	0.206	–	–	–
[1], x2 = 0.5	0.211	–	–	–
[1], x2 = 0.55	0.212	–	–	–
[1], x2 = 0.6	0.208	–	–	–
[1], x2 = 0.65	0.2	–	–	–
[1], x2 = 0.7	0.188	–	–	–
[1], x2 = 0.75	0.17	–	–	–
[1], x2 = 0.8	0.148	–	–	–
[1], x2 = 0.85	0.12	–	–	–
[1], x2 = 0.9	0.086	–	–	–
[2], x2 = 0.0638	–	1709600	–	–
[2], x2 = 0.1404	–	1711100	–	–
[2], x2 = 0.2192	–	1712900	–	–
[2], x2 = 0.2981	–	1714700	–	–
[2], x2 = 0.3819	–	1716700	–	–
[2], x2 = 0.4598	–	1719100	–	–
[2], x2 = 0.5386	–	1721800	–	–
[2], x2 = 0.6171	–	1724700	–	–
[2], x2 = 0.6915	–	1727300	–	–
[2], x2 = 0.7737	–	1730500	–	–
[2], x2 = 0.8546	–	1733700	–	–
[2], x2 = 0.9324	–	1736700	–	–
[3], x2 = 0.0759	–	–	–	1.3885
[3], x2 = 0.1654	–	–	–	1.38924
[3], x2 = 0.2333	–	–	–	1.38982
[3], x2 = 0.3134	–	–	–	1.39054
[3], x2 = 0.3532	–	–	–	1.39091
[3], x2 = 0.3984	–	–	–	1.39134
[3], x2 = 0.431	–	–	–	1.39166
[3], x2 = 0.4741	–	–	–	1.39208
[3], x2 = 0.5178	–	–	–	1.39252
[3], x2 = 0.5578	–	–	–	1.39293
[3], x2 = 0.5924	–	–	–	1.39329
[3], x2 = 0.6321	–	–	–	1.39372
[3], x2 = 0.6761	–	–	–	1.39419
[3], x2 = 0.7128	–	–	–	1.3946
[3], x2 = 0.7928	–	–	–	1.3955
[3], x2 = 0.9448	–	–	–	1.3973
[4], x2 = 0.0882	–	–	816.74	–
[4], x2 = 0.1647	–	–	830.91	–
[4], x2 = 0.2307	–	–	843.79	–
[4], x2 = 0.3499	–	–	868.72	–
[4], x2 = 0.3798	–	–	875.35	–
[4], x2 = 0.4314	–	–	887.14	–
[4], x2 = 0.4631	–	–	894.63	–
[4], x2 = 0.5169	–	–	907.82	–
[4], x2 = 0.5183	–	–	908.18	–
[4], x2 = 0.5529	–	–	916.98	–
[4], x2 = 0.5897	–	–	926.62	–
[4], x2 = 0.6338	–	–	938.59	–
[4], x2 = 0.6667	–	–	947.78	–
[4], x2 = 0.7131	–	–	961.29	–
[4], x2 = 0.7174	–	–	962.55	–
[4], x2 = 0.7909	–	–	985.17	–
[4], x2 = 0.8704	–	–	1011.41	–
[4], x2 = 0.9486	–	–	1039.18	–
